Patent US8114911B2, “Prostaglandin compounds for the treatment of obesity” (Sucampo AG, priority 2003, dated 2012)
“Also recorded” adds a separate entry of the source.

Experiment: Body weight change in volunteers after 21 days of oral test capsules
Format: in vivo, human
Settings: oral capsules before meals, 24, 48 or 72 μg of test substance per day for 21 days, body weight 3 weeks after initiation vs before, placebo control group increased
Method: 13,14-dihydro-15-keto-16,16-difluoro-PGE1 was used as the test substance. Test capsule for oral administration containing 24 μg of the test substance and placebo capsule made from inert ingredients which was identical to the test capsule were prepared.
Volunteers were divided into 4 groups. The test groups received 24, 48 and 72 μg of the test substance per day respectively and the control group received the placebo. All volunteers were instructed to take one capsule before each meal (morning-, day- and evening-time) everyday for 21 days. Test group I (27 volunteers) received 24 μg of the test substance per day by taking the test capsule at the morning time and the placebo capsule at each of the day and evening times; test group II (32 volunteers) received 48 μg of the test substance per day by taking the test capsule at each of the morning and evening times and the placebo capsule at the day time; test group III (32 volunteers) received 72 μg of the test substance by taking the test capsule three times per day. Control group (33 volunteers) received the placebo capsule every time. Volunteers were instructed to take each capsule with 8 ounces of water prior to eating a meal. Body weight was measured before and 3 weeks after the initiation of the administration.

Compound: CCCCC(F)(F)C(=O)CCC1C(O)CC(=O)C1CCCCCCC(=O)O (stereo not shown) [13,14-dihydro-15-keto-16,16-difluoro-PGE1]
- changes of body weight from the pre-values: body weight reductions were observed in all test groups; also recorded: decreased in a dose dependent manner
